One data set deals with HIV-1 BaL (R5). The conditions noted are these: read-out: EC50 (µM ± SEM), PBMCs, p24 Ag ELISA.
The subject of another data set is HIV. The conditions noted are these: read-out: anti-HIV activity EC50 range; range over all HIV strains in cell cultures.
The test system of data set [1] is HIV-induced cell-cell syncytia formation (HUT-78/IIIB and SupT1 cells). In words: Giant cell cocultivation assay (HUT-78/IIIB + SupT1). It is filed as cell-based, HIV-1. The protocol:
The cocultivation experiments were performed as described previously. In brief, LabyA1 was diluted in cell culture medium and 100 µl was added in 96-well plate (BD, Falcon) along with the SupT1 T cells (1×10^5 cells/50 µl). The same amount of persistently HIV-infected HUT-78/IIIB cells were seeded and incubated at 37°C for 24 h. The next day, giant cell formation was scored microscopically and in addition the depletion of the CD4^+ SupT1 cells was measured by flow cytometry.
The depletion of the target CD4^+ SupT1 T cells in the cocultivation assays was measured using PE-conjugated […] (BD Biosciences). The cells were incubated for 30 minutes at room temperature with anti-CD28-PE. After several washing steps, the cells were fixed with a 1% paraformaldehyde solution and analyzed by flow cytometry.

Data set [2] has as its system HSV-1 wild-type RV-174 (clinical isolate). The conditions noted are these: HEL cells; HSV-1 RV-174; CPE.
Data set [3] deals with HIV-1 NL4.3 binding to CD4+ SupT1 cells. The format is cell-based. The conditions noted are these: LabyA1 9.6 µM, sCD4 10 µg/ml, AMD3100 12 µM; no compound MFI 9.8, background 3.9.
Data set [4] relates to HIV-1 ID12 (clinical isolate; R5). Conditions: PBMCs; ID12, group M subtype A/E; p24 Ag ELISA. (In general: In an ELISA, binding on a coated surface is turned into a signal by an enzyme label.)
Data set [5] is described as follows: Cytotoxicity assay (MTS/PES). Conditions: HEL cells, 3 days. It is filed as cell-based, human. The protocol: Cytotoxicity in PBMCs (3 days), MT-4 (5 days), HUT-78 (1 day), C8166-(5 days), HEL (3 days) and Daudi cells (3 days) was measured using the MTS/PES method. The duration of the assays is given between brackets.
A further data set deals with HIV-1 R5 BaL in PBMCs. Put plainly: Susceptibility of pre-treated PBMCs for HIV-1 infection. Conditions: washed, HIV-1 BaL, day 7.
A further data set has as its target T1, CCR5 (Homo sapiens, UniProt P51681).
T1 construct: expressed in transfected cells; host or cells: U87.CD4.CCR5 (human astroglioma U87)
Put plainly: Intracellular calcium mobilization (FLIPR), U87.CD4.CCR5 cells. The format is cell-based. The conditions noted are these: 9.6 µM. The protocol: Calcium (Ca^2+) mobilization assays were performed by the use of a fluorometric imaging plate reader (FLIPR) (Molecular Devices, Sunnyvale, CA) as described previously. Briefly, U87.CD4.CCR5 or U87.CD4.CXCR4 cells were digested by trypsin and seeded in gelatine-coated black-wall 96-well microplates at 2×10^4 cells per well. The next day, the cells were loaded with the fluorescent calcium indicator Fluo-3 acetoxymethyl ester (Molecular Probes, Leiden, The Netherlands) at 4 µM for 45 min at 37°C. Cells were washed 3 times in assay buffer (Hanks’ balanced salt solution with 20 mM HEPES buffer and 0.2% bovine serum albumin, pH 7.4) and incubated for 10 min with Laby A1. The intracellular calcium mobilization induced by LD78β in U87.CD4.CCR5 cells or by SDF-1 in U87.CD4.CXCR4 cells was then measured at 37°C by monitoring the fluorescence as a function of time simultaneously in all the wells. In addition, potential intracellular calcium mobilization induced by Laby A1 was also investigated.

The subject of data set [6] is HSV-1 wild-type RV-175 (clinical isolate). The conditions noted are these: HEL cells; HSV-1 RV-175; CPE.

Structures are written as SMILES. Like-named read-outs stand apart in the source and are kept apart here.

T1 sequence (P51681 whole entry): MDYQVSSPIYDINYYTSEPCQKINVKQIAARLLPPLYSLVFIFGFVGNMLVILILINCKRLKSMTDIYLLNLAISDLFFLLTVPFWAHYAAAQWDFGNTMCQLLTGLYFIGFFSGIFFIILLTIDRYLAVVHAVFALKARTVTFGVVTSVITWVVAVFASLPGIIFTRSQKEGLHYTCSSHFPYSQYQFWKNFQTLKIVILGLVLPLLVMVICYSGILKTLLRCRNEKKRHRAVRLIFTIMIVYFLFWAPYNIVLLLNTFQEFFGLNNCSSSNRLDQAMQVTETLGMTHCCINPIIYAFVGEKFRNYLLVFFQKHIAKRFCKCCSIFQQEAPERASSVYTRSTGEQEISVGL
Method for HIV-1 R5 BaL in PBMCs: The next day, cells were collected, extensively washed in culture medium, resuspended (5×10^5 cells/450 µl) and seeded in a 48-well plate. Immediately afterwards, 50 µl of HIV-1 R5 strain BaL (500 pg/well) was added and cells were cultures for 7 days. Supernatant was collected 7 days post virus infection and viral replication was determined by p24 HIV-1 Ag ELISA.

Usually CC50 stands for the concentration at which the toxic effect on the cells reaches its halfway point. Take `C/C=C1\NC(=O)[C@H](Cc2ccccc2)NC(=O)[C@@H]2CCCN2C(=O)[C@H](C(C)C)NC(=O)[C@H](Cc2c[nH]c3ccccc23)NC(=O)[C@]23CSC[C@H](NC1=O)C(=O)N[C@H](C(=O)O)CSSC[C@H](NC(=O)[C@@H]1CSC[C@]4(C[C@H](N)C(=O)N[C@@H](CC(N)=O)C(=O)N[C@@H](C)C(=O)N4)C(=O)N[C@@H](C(C)C)C(=O)N[C@@H](Cc4c[nH]c5ccccc45)C(=O)N[C@@H](CCC(=O)O)C(=O)N1)C(=O)N[C@@H](C2)C(=O)N[C@@H]([C@@H](C)O)C(=O)NCC(=O)N3` [LabyA1, labyrinthopeptin A1]: the EC50 with HIV-1 BaL (R5) was 3.3 ± 0.4 µM; in the data set on HIV, 700 to 3300 nM; in data set [1] (24 h coculture, CD28 flow cytometry, read-out: EC50, survival of SupT1 T cells in coculture with HUT-78/IIIB cells), 2500 nM; in the data set with HIV-1 clinical isolates (read-out: EC50 range, range over 9 HIV-1 clinical isolates in PBMCs) it was 700 to 1900 nM; in the data set on HIV-1 clinical isolates (read-out: Median EC50, median over 9 HIV-1 clinical isolates in PBMCs), 1000 nM; in [2], 2700 ± 1000 nM. The values for the EC50 in data set [4] and in [6] were 1200 ± 800 nM and 2800 ± 500 nM, respectively. Further, the “activity in cell-cell fusion assay” value in [1] (0.96 µM, light microscopy) is given as “no activity was observed”. Moreover, the giant cell formation result in data set [1] (4.8 µM, light microscopy) is “some giant cells were formed”; in [1] (24 µM, light microscopy) it was “completely inhibited”. In addition, the “virus binding, mean fluorescence intensity (MFI) of anti-gp120 (9205) mAb” value in data set [3] came to 9.2. Moreover, in data set [5], the CC50 is greater than 48000 nM. Also, the “p24 HIV-1 Ag production after pre-treatment” value in the data set with HIV-1 R5 BaL in PBMCs (PBMCs pre-treated 24 h with 1.9 µM) worked out at 12.26 ± 4.61 ng/mL; in the data set with HIV-1 R5 BaL in PBMCs (PBMCs pre-treated 24 h with 9.6 µM, no compound 12.69±4.83), 15.37 ± 3.75 ng/mL. Moreover, at CCR5, the “induction of calcium signaling by compound itself” value is reported as “could not induce by itself calcium signaling”. Further, the “inhibition of LD78β (CCL3L1)-induced intracellular calcium flux” value at CCR5 (10 ng/ml LD78β) is “could also not inhibit the intracellular calcium flux”.
